# ChEMBL document CHEMBL1152676, “Combretastatin-like chalcones as inhibitors of microtubule polymerization. Part 1: synthesis and biological evaluation of antivascular activity” (Bioorg Med Chem, 2009)
# Activity calls are given as the source filed them. No cut-off for these calls is given here.
# Key:
# K562 [1] = test: Antiproliferative activity against human K562 cells after 5 days by MTT assay; format: functional, cell-based
# [2] = Displacement of [3H]colchicine from tubulin assessed as bound colchicine at […] incubated in dark for 2 hrs by scintillation spectroscopy
# HUVEC = test: Antivascular activity in HUVEC cells assessed as change in cell shape at 1 uM after 1 hr by fluorescent-labeled high molecular weight F-dextran permeability assay; format: functional, cell-based; conditions: Homo sapiens
# K562 [3] = test: Cell cycle arrest in human K562 cells assessed as accumulation at G0/G1 phase at 20 nM after 24 hrs by propidium iodide staining-based flow cytometry; format: functional
# K562 [4] = test: Cell cycle arrest in human K562 cells assessed as accumulation at S phase at 20 nM after 24 hrs by propidium iodide staining-based flow cytometry; format: functional
# K562 [5] = test: Cell cycle arrest in human K562 cells assessed as accumulation at G2/M phase at 20 nM after 24 hrs by propidium iodide staining-based flow cytometry; format: functional
# [6] = Inhibition of tubulin assembly by Woods method
SMILES,"IC50 (K562 [1]; Homo sapiens, K562, 120 h) [nM]",also measured
COc1cc(C(=O)/C=C/c2ccc(OCc3ccccc3)cc2)cc(OC)c1OC,9900,–
COc1ccc(/C=C/C(=O)c2ccc(O)cc2)cc1,9900,–
"COc1ccc(/C=C/C(=O)c2ccc(OC)cc2)cc1 [4,4'-DIMETHOXYCHALCONE]",15000,–
COc1cc(C(=O)/C=C/c2ccc(F)cc2)cc(OC)c1OC,1500,–
COc1ccc(/C=C/C(=O)c2ccc(OC)cc2OC)cc1 [METOCHALCONE],2700,–
COc1ccc(C(=O)/C=C/c2ccc(OC)c(OP(=O)(O)O)c2)cc1 [listing 1 of 2 here],–,Activity [2]: 83%; Activity (HUVEC): Active
COc1ccc(/C=C/C(=O)c2cc(OC)c(OC)c(OC)c2)cc1[N+](=O)[O-],4000,–
COc1cc(C(=O)/C=C/c2cc(OC)c(OC)c(OC)c2)ccc1O,3500,–
COc1ccc(/C=C(\C)C(=O)c2cc(OC)c(OC)c(OC)c2)cc1[N+](=O)[O-],60,Activity (K562 [3]): 36%; Activity (K562 [4]): 36%; Activity (K562 [5]): 28%; IC50 [6]: > 10000 nM
O=C(/C=C/c1ccc(F)cc1)c1ccc(F)cc1,4900,–
COc1ccc(C(=O)/C=C/c2cc(OC)c(OC)c(OC)c2)cc1OC,1100,–
Cc1ccc(C(=O)[C@H]2O[C@@H]2c2ccc(C)cc2)cc1 (racemic),12000,–
"Cc1ccc(/C=C/C(=O)c2ccc(C)cc2)cc1 [4,4'-DIMETHYLCHALCONE]",11000,–
CCO/C(=C\c1cc(F)c(OC)c(F)c1)C(=O)c1cc(OC)c(OC)c(OC)c1,230,–
COc1ccc(CCC(=O)c2cc(OC)c(OC)c(OC)c2)cc1,10000,–
COc1ccc(C(=O)[C@H]2O[C@@H]2c2ccc(OC)c(OC)c2)cc1 (racemic),> 30000,–
COc1ccc(C(=O)/C=C/c2cc(OC)ccc2OC)c(Cl)c1,4000,–
COc1ccc(/C=C/C(=O)c2cc(OC)c(OC)c(OC)c2)cc1OC,300,Activity (K562 [3]): 31%; Activity (K562 [4]): 25%; Activity (K562 [5]): 44%; IC50 [6]: > 25000 nM; Activity [2]: 62%
CCO/C(=C\c1ccc(OC)c(O)c1)C(=O)c1cc(OC)c(OC)c(OC)c1,2.6,–
COc1ccc(C(=O)CCc2cc(OC)c(OC)c(OC)c2)cc1,12000,–
COc1cc(/C=C/C(=O)c2ccc(F)cc2)cc(OC)c1OC,1600,–

SMILES,"IC50 (K562 [1]; Homo sapiens, K562, 120 h) [nM]",also measured
COc1cc(/C=C(\C)C(=O)c2cc(OC)c(OC)c(OC)c2)cc(OC)c1OC,2500,–
COc1cc(/C=C/C(=O)c2cc(OC)c(OC)c(OC)c2)cc(OC)c1OC,1500,–
COc1ccc(C(=O)/C(C)=C/c2ccc(OC)c(OP(=O)(O)O)c2)cc1,–,IC50 (K562 [1]; k562): 500 nM
COc1ccc(/C=C/C(=O)c2ccc(OC)c(OC)c2OC)cc1O,10,Activity (K562 [3]): 32%; Activity (K562 [4]): 28%; Activity (K562 [5]): 40%; IC50 [6]: 450 nM
COc1ccc(/C=C/C(=O)c2cc(OC)c(OC)c(OC)c2)cc1,300,–
COc1cc(C(=O)[C@H]2O[C@@H]2c2cc(OC)c(OC)c(OC)c2)cc(OC)c1OC (relative stereo),3700,–
O=C(/C=C/c1ccccc1)c1ccccc1 [CHALCONE],3800,–
CCCO/C(=C\c1ccc(OC)c(F)c1)C(=O)c1cc(OC)c(OC)c(OC)c1,20,–
COc1ccc(/C=C/C(=O)c2ccc(OC)c(OC)c2OC)cc1F,350,Activity (K562 [3]): 37%; Activity (K562 [4]): 14%; Activity (K562 [5]): 49%; IC50 [6]: 7900 nM
COc1cc(C(=O)/C=C/c2ccc(Cl)cc2Cl)cc(OC)c1OC,3800,–
COc1cc(OC)c(C=C(C)C(=O)c2cc(OC)c(OC)c(OC)c2)c(OC)c1,> 25000,–
COc1ccc(/C=C\c2cc(OC)c(OC)c(OC)c2)cc1O [COMBRETASTATIN A4],–,Activity (K562 [3]): 2%; Activity (K562 [4]): 8%; Activity (K562 [5]): 90%; IC50 [6]: 100 nM; Activity [2]: 8%
COc1ccc(CCC(O)c2cc(OC)c(OC)c(OC)c2)cc1 (stereo not drawn),4000,–
COc1ccc(C(=O)/C=C/c2ccc(O)c(O)c2)c(OC)c1OC,1700,–
COc1ccc(C(=O)/C=C/c2cc(F)c(OC)c(F)c2)c(OC)c1OC,4800,Activity (K562 [3]): 51%; Activity (K562 [4]): 3%; Activity (K562 [5]): 46%; IC50 [6]: 31000 nM
O=C(/C=C/c1ccc2c(c1)OCO2)c1ccc2c(c1)OCCO2,8000,–
COc1ccc(C(=O)/C=C/c2ccc(OC)c(OP(=O)(O)O)c2)cc1 [listing 2 of 2 here],–,IC50 (K562 [1]; k562): 300 nM
COc1ccc(/C=C/C(=O)c2cc(OC)c(OC)c(OC)c2)cc1N,10,Activity (K562 [3]): 48%; Activity (K562 [4]): 33%; Activity (K562 [5]): 19%; IC50 [6]: 2000 nM
CCC/C(=C\c1ccc(OC)c(O)c1)C(=O)c1cc(OC)c(OC)c(OC)c1,2.2,–
COc1ccc(OC)c(C(=O)/C=C/c2ccc3c(c2)OCCO3)c1,300,–
COc1ccc(/C=C/C(=O)c2ccc(C)cc2)cc1O,1500,–

SMILES,"IC50 (K562 [1]; Homo sapiens, K562, 120 h) [nM]",also measured
CCO/C(=C\c1ccc(OC)c(F)c1)C(=O)c1cc(OC)c(OC)c(OC)c1,11,–
COc1cc(C(=O)/C=C/c2ccc(Cl)cc2)cc(OC)c1OC,1500,–
COc1ccc(/C=C/C(=O)c2ccc(OC)c(OC)c2OC)cc1,300,–
COc1ccc(C(=O)/C=C/c2cc(OC)c(OC)c(OC)c2)c(O)c1,4400,–
COc1ccc(/C=C/C(O)c2cc(OC)c(OC)c(OC)c2)cc1 (stereo not drawn),4000,–
COc1cc(C(=O)/C=C/c2cc(F)c(OC)c(F)c2)cc(OC)c1OC,6200,Activity (K562 [3]): 20%; Activity (K562 [4]): 19%; Activity (K562 [5]): 61%; IC50 [6]: 12000 nM
COc1ccc(C(=O)/C=C/c2ccc(OC)c(OP(=O)([O-])[O-])c2)cc1.[Na+].[Na+],–,IC50 (K562 [1]; k562): 8 nM; Activity (K562 [3]): 22%; Activity (K562 [4]): 14%; Activity (K562 [5]): 64%; IC50 [6]: 39000 nM
COc1ccc(C(=O)/C=C/c2ccc(OC)c(OC)c2)c(O)c1,16000,–
COc1ccc(C(=O)[C@H]2O[C@@H]2c2ccc(C)cc2)cc1 (relative stereo),> 30000,–
COc1ccc(/C=C/C(=O)c2ccc(OC)c(OC)c2)cc1,10000,–
COc1ccc(OC)c(C(=O)/C=C/c2ccc(N(C)C)cc2)c1,40,–
COc1ccc(/C=C(\C)C(=O)c2ccc(OC)cc2)cc1,1900,–
COc1cc(C(=O)/C=C/c2ccc(O)c(O)c2)cc(OC)c1OC,1200,–
COc1ccc([C@H]2O[C@@H]2C(=O)c2ccc(C)cc2)cc1 (racemic),15000,–
COc1cc(C(=O)/C(C)=C/c2cc(F)c(OC)c(F)c2)cc(OC)c1OC,50,Activity (K562 [3]): 4%; Activity (K562 [4]): 24%; Activity (K562 [5]): 72%; IC50 [6]: 2400 nM; Activity [2]: 25%
COc1cc(/C=C/C(=O)c2ccccc2)cc(OC)c1OC,1600,–
COc1cc(/C=C/C(=O)c2ccc3c(c2)OCO3)cc(OC)c1OC,2900,–
COc1ccc(/C=C/C(O)c2cc(OC)c(OC)c(OC)c2)cc1O (stereo not drawn),500,–
COc1cc(C(=O)[C@H]2O[C@@H]2c2ccc(C)cc2)cc(OC)c1OC (racemic),3400,–
COc1ccc(C(=O)/C=C/c2ccc(Cl)cc2)c(O)c1,9700,–
COc1ccc(OC)c(/C=C/C(=O)c2c(OC)cc(OC)cc2OC)c1,7200,–

SMILES,"IC50 (K562 [1]; Homo sapiens, K562, 120 h) [nM]",also measured
COc1cc(/C=C/C(=O)c2ccc3c(c2)OCCO3)cc(OC)c1OC,5600,–
CN(Cc1cnc2nc(N)nc(N)c2n1)c1ccc(C(=O)N[C@@H](CCC(=O)O)C(=O)O)cc1,–,Activity (HUVEC): inactive
COc1cc(OC)c(C(=O)/C=C/c2ccc(OC)c(OC)c2OC)c(OC)c1,300,Activity (K562 [3]): 10%; Activity (K562 [4]): 16%; Activity (K562 [5]): 74%; IC50 [6]: 15000 nM; Activity [2]: 27%
COc1ccc(CCC(=O)c2cc(OC)c(OC)c(OC)c2)cc1O,1000,–
COc1ccc(C(=O)[C@H]2O[C@@H]2c2ccc(OC)cc2)cc1 (racemic),> 30000,–
COc1ccc(CC(C)C(O)c2cc(OC)c(OC)c(OC)c2)cc1O (stereo not drawn),600,–
COc1ccc(/C=C/C(=O)c2ccc(C)cc2)cc1,20000,–
COc1ccc(/C=C/C(=O)c2ccc(OC)c(OC)c2)cc1OC,2200,–
COc1ccc(/C=C\c2cc(OC)c(OC)c(OC)c2)cc1OP(=O)(O)O,–,Activity (HUVEC): Active
O=C(/C=C/c1ccc2c(c1)OCO2)c1ccc(F)cc1,5100,–
COc1ccc([C@H]2O[C@@H]2C(=O)c2cc(OC)c(OC)c(OC)c2)cc1 (racemic),4900,–
COc1ccc(CCCc2cc(OC)c(OC)c(OC)c2)cc1,500,–
COc1ccc(/C=C/C(=O)c2cc(OC)c(OC)c(OC)c2)cc1F,300,Activity (K562 [3]): 9%; Activity (K562 [4]): 19%; Activity (K562 [5]): 72%; IC50 [6]: 1200 nM
COc1ccc(CC(C)C(=O)c2cc(OC)c(OC)c(OC)c2)cc1O (stereo not drawn),30,Activity (K562 [3]): 36%; Activity (K562 [4]): 36%; Activity (K562 [5]): 28%; IC50 [6]: 4000 nM
CCCO/C(=C\c1cc(F)c(OC)c(F)c1)C(=O)c1cc(OC)c(OC)c(OC)c1,220,–
COc1ccc(/C=C/C(=O)c2ccc3c(c2)OCO3)cc1OC,7100,–
COc1ccc(OC)c(/C=C/C(=O)c2ccc3c(c2)OCO3)c1,6400,–
COc1ccc(C(=O)/C(C)=C/c2cc(OC)ccc2OC)cc1,2300,–
COc1ccc(/C=C(\C)C(O)c2cc(OC)c(OC)c(OC)c2)cc1O (stereo not drawn),90,Activity (K562 [3]): 44%; Activity (K562 [4]): 33%; Activity (K562 [5]): 24%; IC50 [6]: > 10000 nM
COc1ccc(C(=O)/C(C)=C/c2ccc(OC)c(OP(=O)([O-])[O-])c2)cc1.[Na+].[Na+],–,IC50 (K562 [1]; k562): 0.12 nM; Activity (K562 [3]): 21%; Activity (K562 [4]): 10%; Activity (K562 [5]): 69%; IC50 [6]: 3100 nM
COc1ccc(CCC(O)c2cc(OC)c(OC)c(OC)c2)cc1O (stereo not drawn),1000,–
